# Columns and labels:
# [1] = tested on: Anas platyrhynchos; conditions: for LC50: short-term, oral, feed, mortality
# [2] = tested on: Apis mellifera; conditions: acute; duration: 48 hours; dermal; mortality
# [3] = tested on: Canidae; conditions: oral, Dog Other
# [4] = tested on: Chalcophaps sp.; conditions: acute; oral; unspecified; mortality
# [5] = tested on: Colinus virginianus; conditions: acute; oral; diet; mortality
# [6] = tested on: Coturnix japonica
# [7] = tested on: Daphnia magna; conditions: chronic/long-term; duration: 21 days; reproduction
# [8] = tested on: Encarsia formosa; conditions: not reported; mortality
# [9] = tested on: Lepomis macrochirus; conditions: acute; duration: 96 hours; mortality
# [10] = tested on: Oncorhynchus mykiss; conditions: acute; duration: 96 hours; mortality
# [11] = tested on: Pimephales promelas; conditions: chronic/long-term; duration: 31 days; growth
# [12] = tested on: Rattus norvegicus
# [13] = tested on: Tagia sp.
# [14] = tested on: Perdix sp.; conditions: acute; oral; unspecified; mortality
# [15] = tested on: Phasianus sp.; conditions: acute; oral; unspecified; mortality
structure (smiles),measurement,setting,value
CCCCc1c(C)nc(NCC)nc1OS(=O)(=O)N(C)C [Bupirimate],LC50,[1],> 2090 mg/kg-day
same,LD50,[2],> 50 µg/piece
same,NOAEL,"[3]; chronic, duration: 2 years",5 mg/kg-day
same,NOAEL,"[3]; subchronic, duration: 90 days",15 mg/kg-day
same,LD50,[4],> 2750 mg/kg-day
same,LC50,[5],> 2580 mg/kg-day
same,LD50,"[6]; acute, oral, mortality",> 5000 mg/kg-day
same,NOEC,[6]; reproduction developmental,≥ 98 mg/kg-day
same,NOEC,[7],0.56 mg/L
same,LEL,[8],750 g/ha
same,LC50,[9],1 µg/mL
same,LC50,[10],1 µg/mL
same,NOEC,[11],0.1 mg/L
same,LD50,"[12]; acute, oral, mortality",4000 mg/kg-day
same,LC50,"[13]; acute, duration: 14 days, mortality",> 1000 mg/kg
same,NOEC,[13]; chronic/long-term,7.3 mg/kg
CCCCc1c(C)nc(NCC)[nH]c1=O [Ethirimol],NOEC,[1]; reproductive,58 mg/kg-day
same,LC50,[1],> 1960 mg/kg-day
same,LC50,[5],> 3380 mg/kg-day
same,LD50,[14],> 3000 mg/kg-day
same,LD50,[15],> 3000 mg/kg-day
same,NOAEL,"[12]; acute, neurology",4000 mg/kg-day
same,NOAEL,"[12]; chronic, duration: 2 years, clinical signs",3.5 mg/kg-day
same,NOEL,"[12]; chronic, mortality",500 mg/kg-day
same,NOAEL,"[12]; reproduction developmental, body weight",5 mg/kg-day

# Source: EPA's ToxValDB 9.5 (doi:10.2903/j.efsa.2010.1786)
